Source: US3933784A, “Des-(ser^13)-srif and intermediates” (American Home Products Corporation, priority 1975, dated 1976)
Positions of bridges follow the written chain, without caps; N, C: chain ends. No end group written: not given here.

System: growth hormone
Test: Growth hormone activity in nembutal-treated rats, growth hormone level by radioimmunoassay
Format: in vivo
Conditions: rats 200-250 g, nembutal 50 mg/kg i.p., 5 minutes later compound 800 μg per rat s.c. in saline; blood taken 15 minutes after injection; control rats 159 ± 16 ng/ml
Description: After hydrolysis of the peptide in methanesulfonic acid for 18 hours at 120°C in an evacuated sealed tube, the following values for the amino acid residues are obtained: Ala 1.00, Gly 1.00, Cys 1.59, Lys 1.88, Asp 0.99, Phe 3.05, Trp (present, but not quantitated), Thr 1.76. The growth hormone activity of the compound of Example 3 was determined by injecting rats weighing about 200-250 g first with nembutal intraperitoneally at a dose of 50 mg/kg then after 5 minutes injecting the rats subcutaneously with a solution of the compound of Example 3 in saline at a dose of 800 μg per rat. Blood samples are taken 15 minutes after injection with the compound of Example 3 and the growth hormone level determined by radioimmunoassay.

“L-alanylglycyl-L-cysteinyl-L-lysyl-L-asparaginyl-L-phenylalanyl-L-phenylalanyl-L-tryptophyl-L-lysyl-L-threonyl-L-phenylalanyl-L-threonyl-L-cysteine-(3-13 cyclic) disulfide (AGCKNFFWKTFTC; disulfide 3-13; UniProt P61278 103-116, looked up, variant S13*) [Example 3, tridecapeptide analog of somatostatin in which the amino acid in the thirteen position has been omitted]” gave a growth hormone level of 49 ± 7 ng/mL.
